Data from US9254308B2, “Kits and methods for the treatment of cancer using gliadin peptides” (BARMARSA RESEARCH LLC, priority 2013, dated 2016).
Where no end group is shown, it is not given here.

Key:
A549 NSCLC cells = assay: MTT growth inhibition, A549 cells, 72-hour treatment
Experimental: (§1) Cells were kept at 37° C. in a humidified atmosphere of 5% CO2 and grown until they reached a confluency of 90%. Cells were then washed, trypsinized, and counted using a Coulter counter.
A549 NSCLC cells were maintained and cultured as described above. […] Cells were plated at a density of 10,000 cells/well in 24-well cell culture plates and allowed to adhere for 24 hours. […] All experiments were conducted in sextuplicate. […] Following 72 hours of treatment, growth inhibition was evaluated by the 3-(4,5-dimethylthiazol-2-yl)-2,5-diphenyltetrazolium bromide (MTT) assay (Roche Diagnostics Corporation, Indianapolis, Ind.) according to the manufacturer's instructions. The absorbance at 570 nm was measured using a plate reader (BioTek, Winooski, Vt.).

A549 cells [1] = assay: TUNEL apoptosis assay, A549 cells; format: cell-based, human; conditions: A549, 72 h, 1 μM gefitinib alone
Experimental: The ability of alpha-gliadin p31-43 to induce apoptosis in cancer cells was assessed. […] Cells were grown in the presence of 5% CO2 at 37° C. in an incubator.
Briefly, A549 cells (1×10^5) were plated in chamber slides and allowed to adhere overnight. […] After the 72-hour treatment, the cells were fixed with 4% formaldehyde in PBS (pH 7.4) for 25 minutes at room temperature, then washed twice for 5 minutes in PBS, permeabilized in 0.2% Triton X-100 solution in PBS for 5 minutes at room temperature, and finally washed twice for 5 minutes in PBS. Apoptosis was measured using the DeadEnd™ Colorimetric TUNEL System (Promega, Madison, Wis.) according to the manufacturer's instructions. At the end of the assay, the cells were mounted and observed under the microscope.

NSCLC = conditions: Caucasian NSCLC patients; Gottschling 2012; cited from earlier work
[2] = system: A549 human lung cancer xenograft; assay: A549 human lung cancer xenograft model, tumor volume; format: in vivo, nude mice; conditions: alone or with 200 μg gliadin i.v.; for Mean Tumor Volume: 150 mg/kg gefitinib by gavage once daily 14 days
Excerpt: Six-week old female nude mice (Harlan Laboratories, Indianapolis, Ind.) were quarantined for 3 days and housed 5 mice per cage, with a 12-hour light-dark cycle, and a relative humidity of 50%. Drinking water and diet were supplied to the animals ad libitum. All animals were housed under pathogen-free conditions. […] The animals were monitored for two weeks following the 14-day treatment period. Tumor measurements were initiated as soon as the tumor formed a palpable mass and measured twice weekly.

[3] = system: PANC-1 pancreatic carcinoma cells; assay: MTT growth inhibition, PANC-1 cells, 72-hour treatment; conditions: for Mean absorbance (570 nm): PANC-1, 72 h, 1 μg/mL gefitinib or erlotinib alone
Experimental: as §1
(§2) Cells were plated at a density of 10,000 cells/well in 24-well cell culture plates and allowed to adhere for 24 hours. […] All experiments were conducted in sextuplicate. […] Following 72 hours of treatment, growth inhibition was evaluated by the MTT assay according to the manufacturer's instructions. The absorbance at 570 nm was measured using a plate reader.

[4] = system: PANC-1 human pancreatic carcinoma cells; assay: Cell count, PANC-1 cells, 5-FU 72-hour treatment; format: cell-based; conditions: PANC-1, 72 h
PANC-1 cells = assay: Cell count, PANC-1 cells, 14-day treatment regimen; format: cell-based, human
Experimental: All treatments were conducted in triplicate. […] Media was refreshed with the respective treatments every 72 hours. After 14 days of treatment, cells were trypsinized and counted.

[5] = Toxicity in BALB/c mice (body weight, behavior, deaths); format: in vivo; conditions: female BALB/c mice
Experimental: The toxicity of alpha-gliadin peptide p31-43 in animals was evaluated. Five- to six-week old female BALB/c mice were dosed with vehicle (100 μL DMSO/saline) administered subcutaneously once a day for five days (Group 1) or 200 μg of alpha-gliadin peptide p31-43 in vehicle administered subcutaneously once a day for five days (Group 2). To prepare the gliadin solution, 70 μL of sterile DMSO was added to 1 mg of alpha-gliadin peptide p31-43 and vortexed to dissolve the peptide. After the peptide was dissolved, 430 μL of sterile 0.9% sodium chloride was added and vortexed to create a 1000 μg/500 μL solution of alpha-gliadin peptide p31-43.
Toxicity was evaluated using daily weight measurements and behavior assessments. […] At the end of the study, the mean body weights (±SE) were 19.8±0.4 grams for Group 1 (n=5) and 20.0±0.3 grams for Group 2 (n=5). […] Alpha-gliadin peptide p31-43 was therefore tolerated at a dosing level of 10 mg/kg/day without apparent toxicity.

[6] = system: 5-FU-resistant PANC-1 cells; assay: Cell count, surviving 5-FU-resistant PANC-1 cells, 7-day gliadin treatment; format: cell-based, human; conditions: 100 μg/mL or 200 μg/mL for 7 additional days
Experimental: In order to examine the effects of alpha-gliadin peptide p31-43 on PANC-1 cells exposed to 5-FU for an extended period of time (14 days), an experiment was conducted on the surviving, i.e., resistant, cell population (4%) from the previous experiment. Briefly, after counting viable cells on day 14 of treatment, surviving cells were replated at a density of 5,000 cells per well. The following day, cells were treated with vehicle or 100 μg/mL or 200 μg/mL of alpha-gliadin peptide p31-43. Media containing the respective treatments was refreshed on day 3 and 6. On day 7, cells were trypsinized and counted.

A549 cells [7] = assay: Cell count, A549 cells, cisplatin 72-hour treatment; format: cell-based, human; conditions: A549, 72 h
Experimental: All experiments were conducted in triplicate.

A549 cells [8] = assay: Cell count, A549 cells, 14-day treatment regimen; format: cell-based, human; conditions: A549, 14 days; 3.3 μM cisplatin
Experimental: All treatments were conducted in triplicate. […] Media was refreshed with the respective treatments every 72 hours.

[9] = system: NCI-H1975 NSCLC cells (EGFR L858R, T790M); assay: MTT growth inhibition, NCI-H1975 cells, 72-hour treatment
Experimental: as §1, §2

[10] = 200 μg subcutaneously once a day for five days

COc1cc2ncnc(Nc3ccc(F)c(Cl)c3)c2cc1OCCCN1CCOCC1 [gefitinib]
Mean absorbance (570 nm) (A549 NSCLC cells): 1.35
Mean % apoptotic (A549 cells [1]): 19%
patients exhibiting significant changes in disease progression following therapy (NSCLC): about 10%
tumor doubling time ([2]; A549 xenograft, 150 mg/kg gefitinib): 24.48 days
Mean Tumor Volume ([2]; Study Day 4 (dosing period)): 47.74 ± 2.87 mm^3
Mean Tumor Volume ([2]; Study Day 7 (dosing period)): 51.67 ± 5.69 mm^3
Mean Tumor Volume ([2]; Study Day 11 (dosing period)): 49.30 ± 3.77 mm^3
Mean Tumor Volume ([2]; Study Day 14 (dosing period)): 60.43 ± 5.35 mm^3
Mean Tumor Volume ([2]; Study Day 18 (recovery period)): 75.40 ± 9.05 mm^3
Mean Tumor Volume ([2]; Study Day 21 (recovery period)): 95.22 ± 11.15 mm^3
Mean Tumor Volume ([2]; Study Day 25 (recovery period)): 157.69 ± 14.76 mm^3
Mean Tumor Volume ([2]; Study Day 28 (recovery period, termination), 150 mg/kg): 239.25±32.78 mm^3
Mean absorbance (570 nm) [3]: 2.11

O=c1[nH]cc(F)c(=O)[nH]1 [5-FU, 5-Fluorouracil]
inhibition at 6.25 µM ([4]; Homo sapiens, 5-FU 6.25 μM): 63.3%
inhibition at 12.5 µM ([4]; Homo sapiens, 5-FU 12.5 μM): 63%
inhibition at 25 µM ([4]; Homo sapiens, 5-FU 25.0 μM): 62.8%
inhibition at 50 µM ([4]; Homo sapiens, 5-FU 50.0 μM): 63%
inhibition at 100 µM ([4]; Homo sapiens, 5-FU 100.0 μM): 68.5%
inhibition at 200 µM ([4]; Homo sapiens, 5-FU 200.0 μM): 73.6%
inhibition at 400 µM ([4]; Homo sapiens, 5-FU 400.0 μM): 79.2%
Mean Cell Number/mL ([4]; 5-FU 6.25 μM): 116,500 /mL
Mean Cell Number/mL ([4]; 5-FU 12.5 μM): 117,500 /mL
Mean Cell Number/mL ([4]; 5-FU 25.0 μM): 118,200 /mL
Mean Cell Number/mL ([4]; 5-FU 50.0 μM): 100,200 /mL
Mean Cell Number/mL ([4]; 5-FU 100.0 μM): 117,600 /mL
Mean Cell Number/mL ([4]; 5-FU 200.0 μM): 83,900 /mL
Mean Cell Number/mL ([4]; 5-FU 400.0 μM): 66,200 /mL
inhibition at 6.25 µM (PANC-1 cells; Homo sapiens, 336 h, PANC-1, 14 days, 6.25 μM 5-FU): 96%
Mean Cell Number/mL (PANC-1 cells; PANC-1, 14 days, 6.25 μM 5-FU): 33,233 /mL
surviving 5-FU-resistant population remaining viable, of the initial population (PANC-1 cells; PANC-1, following 14-day 5-FU treatment): 4%

LGQQQPFPPQQPY [gliadin, alpha-gliadin peptide p31-43]
behavior changes compared to control mice [5, 10]: No behavior changes were observed
treatment-related deaths [5, 10]: no treatment-related deaths
mean body weight (±SE) at the end of the study ([5]; 200 μg subcutaneously once a day for five days, n=5): 20.0±0.3 grams
NOAEL at 120 h ([5]; mouse, in vivo, sc, 200 ug, subcutaneously, five days, read-out: dosing level tolerated without apparent toxicity): 10 mg/kg/day
cell proliferation of surviving 5-FU-treated PANC-1 cells [6]: cell proliferation was significantly suppressed

N.N.[Cl][Pt][Cl] [cisplatin]
% Inhibition (A549 cells [7]; cisplatin 0.103 μM): 13.5%
Mean Cell (A549 cells [7]; cisplatin 0.103 μM): 166,883
% Inhibition (A549 cells [7]; cisplatin 0.207 μM): 21.8%
Mean Cell (A549 cells [7]; cisplatin 0.207 μM): 150,917
% Inhibition (A549 cells [7]; cisplatin 0.413 μM): 42.0%
Mean Cell (A549 cells [7]; cisplatin 0.413 μM): 111,917
% Inhibition (A549 cells [7]; cisplatin 0.825 μM): 74.9%
Mean Cell (A549 cells [7]; cisplatin 0.825 μM): 48,400
% Inhibition (A549 cells [7]; cisplatin 1.650 μM): 91.6%
Mean Cell (A549 cells [7]; cisplatin 1.650 μM): 16,117
% Inhibition (A549 cells [7]; cisplatin 3.300 μM): 94.8%
Mean Cell (A549 cells [7]; cisplatin 3.300 μM): 10,033
% Inhibition (A549 cells [8]): 98%
Mean Cell Number/mL (A549 cells [8]): 5,780 /mL

C#Cc1cccc(Nc2ncnc3cc(OCCOC)c(OCCOC)cc23)c1 [erlotinib]
% Inhibition (A549 NSCLC cells): 3.4%
Mean absorbance (570 nm) (A549 NSCLC cells): 1.44
patients exhibiting significant changes in disease progression following therapy (NSCLC): about 10%
Mean absorbance (570 nm) [9]: 1.73
% Inhibition [3]: 0%
Mean absorbance (570 nm) [3]: 1.98
